Values quoted from earlier work as cited in paper PMC10705946, “^225Ac-iPSMA-RGD for Alpha-Therapy Dual Targeting of Stromal/Tumor Cell PSMA and Integrins” (International Journal of Molecular Sciences, 2023).
Ends that are not written are not given here.

System: glioma cells
Parameters: method as in PMID 29611298
Conditions: after 24 h of treatment, cells overexpressing the substance P receptor; cited from earlier work

## ^225Ac-labeled substance P: ^225Ac-labeled ligand of the neurokinin-1 receptor (RPKPQQFFGLM; ends and bridges not checked; also: 225Ac radiolabel, attachment not given here; UniProt P20366 58-68, looked up)
  Increase of apoptotic cells: 25%
